# Results published in patent US7820656B2, “Pharmaceutical composition comprising N-aryl N′ morpholino/piperidino thiocarbamide derivatives for treating type II diabetes” (priority 2004, dated 2010).
# Legend:
# [1] = system: HepG2 hepatocyte; assay: Measurement of glycogenesis ability (glycogen content, absorbance at 490 nm); assay type: cell-based; conditions: for Glycogenesis (absorbance): absorbance at 490 nm, control 0.103; for Rate of Increase(%) of glycogenesis: versus control
# Description: Thereto, ethanol was added to precipitate glycogen, followed by dissolving the precipitated glycogen in conc. sulfuric acid. Glucose produced was reacted with phenol to obtain a stained product. An absorbance of the stained product was measured at 490 nm (J Applied Physiol, 1970, 28, 234-236).
# [2] = system: HepG2 cells; assay: Measurement of lipid peroxide (TBARS); assay type: cell-based; conditions: for Average content of TBARS (%): control 100.0; for decrease of TBARS content compared with control group: HepG2, 24 hours (FIG. 4)
# Description: HepG2 cells were cultured to administer N(4′-chlorophenyl) N′ morpholino thiocarbamide (10 μg/ml-100 μg/ml). After 24 hours, a cellular culture solution was removed to wash HepG2 cells with a phosphate buffer solution (PBS), prior to adding 0.1% Triton X-100 to detach the cells. The separated cell extracts were mixed with 20% acetic acid, pH 3.5 and 0.78% aqueous thiobarbituric acid solution. The mixture was heated at 95° C. for 1 hour and centrifuged at 3000 rpm for 15 minutes. The absorbance of the red supernatant was measured at 532 nm (Anal Biochem, 1979, 95, 351-358).
# [3] = system: RAW 264.7 cells; assay: Measurement of anti-inflammatory action (nitrites, Griess reaction, LPS-stimulated); assay type: cell-based; conditions: for Produced nitrites: 15 hours, control 3.3435, LPS 6.2775
# Description: Nitrites accumulated in a cellular medium were measured as a marker of […] (NO) formation through a Griess reaction. RAW 264.7 cells were cultured in a medium containing DMEM, 10% FBS, penicillin (100 units/ml) and streptomycin sulfate (100 μg/ml) in a presence of 5% CO2, treated with N-aryl N′ morpholino/piperidino thiocarbamide derivatives in a content of 10 μg/ml and 100 μg/ml in a presence of LPS (1 μg/ml), followed by adding a Griess reagent 100 μl to the medium 100 μl 15 hours later to be cultured at room temperature for 10 minutes and measuring an absorbance at 540 nm. Nitrite content in a medium was evaluated by a standard curve using NaNO2.
# [4] = system: mouse; assay: Oral glucose tolerance test; assay type: in vivo; conditions: 80 mg/kg oral 1 h before glucose 2 g/kg oral; blood glucose at 30, 60, 120 min; compared with control (FIG. 1)
# Description: A mouse was starved for 18 hours, prior to orally administering N(4′-chlorophenyl) N′ morpholino thiocarbamide to the mouse in a dose of 80 mg/kg. After an hour passed, Glucose of 2 g/kg was orally administered to measure blood glucose level in 30, 60, and 120 minutes using a blood glucose testing kit.
# [5] = system: streptozotocin-induced diabetic mouse; assay: Blood glucose lowering effect using a streptozotocin-induced diabetic mouse; assay type: in vivo; conditions: 80 mg/kg oral a day, 5 days a week, 3 consecutive weeks; STZ control almost 550 mg/dl (FIG. 2)
# Description: A mouse was used two weeks after streptozotocin (50 mM citrate buffer, pH 4.5) was intraperitoneally administered to the mouse (J Gene Med. 2003, 5, 417-424). […] Change of blood glucose level was measured once a week.
# [6] = target: T1, insulin receptor (Mus musculus, UniProt P15208); assay: Phosphorylation measurement of insulin receptor tyrosin residues (hepatic lysate, immunoprecipitation, western blot); assay type: in vivo; conditions: 80 mg/kg to mouse starved 16 hours, liver after 1 hour; compared with control (FIG. 5)
# T1 construct: the mouse was dissected to separate a liver at 4° C; from tissue; host or cells: mouse liver (hepatic lysate)
# T1 sequence (P15208 28-748 limits assumed): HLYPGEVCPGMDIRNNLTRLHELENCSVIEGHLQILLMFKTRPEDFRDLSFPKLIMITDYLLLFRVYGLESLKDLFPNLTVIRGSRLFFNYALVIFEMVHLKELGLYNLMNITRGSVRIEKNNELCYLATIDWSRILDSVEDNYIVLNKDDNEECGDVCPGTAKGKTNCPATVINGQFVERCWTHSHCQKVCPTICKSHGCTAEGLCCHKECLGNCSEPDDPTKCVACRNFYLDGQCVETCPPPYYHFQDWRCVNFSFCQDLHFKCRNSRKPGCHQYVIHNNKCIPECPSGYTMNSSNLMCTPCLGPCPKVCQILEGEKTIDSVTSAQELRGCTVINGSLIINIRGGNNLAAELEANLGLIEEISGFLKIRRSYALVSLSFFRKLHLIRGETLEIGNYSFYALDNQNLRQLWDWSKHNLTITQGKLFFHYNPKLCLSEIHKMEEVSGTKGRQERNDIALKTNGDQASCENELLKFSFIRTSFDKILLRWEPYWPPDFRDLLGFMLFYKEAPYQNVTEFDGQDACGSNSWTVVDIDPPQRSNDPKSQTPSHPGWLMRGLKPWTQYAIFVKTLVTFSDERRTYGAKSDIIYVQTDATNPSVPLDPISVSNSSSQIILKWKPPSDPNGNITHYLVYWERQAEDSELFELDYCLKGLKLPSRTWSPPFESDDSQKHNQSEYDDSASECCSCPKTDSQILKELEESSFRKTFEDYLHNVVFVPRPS
# Description: N(4′-chlorophenyl) N′ morpholino thiocarbamide in a dose of 80 mg/kg was administered to a male IC mouse starved for 16 hours. After an hour passed, the mouse was dissected to separate a liver at 4° C. Hepatic homogenization was provided by a little modification of conventional method (Zhao, H., Xu, H., Moore, E., Meiri, N., Quon, M. J., Alkon, D., L., Insulin receptors and spatial memory. J. Biol. Chem. 274, 34893-34902, 1999). The separated liver was suspended in a buffer A containing 50 mM Tris HCl, pH 7.4, 1 mM EDTA, 1 mM EGTA, 150 mM NaCl, 1% Triton X-100, 0.5 mM PMSF, 1 mM Na3VO4, leupeptin and aprotinin 1 μg/ml, and homogenized using a Potter-Elvehjem homogenizer. The lysate was centrifuged at 10,000×g for 20 minutes. The supernatant was analyzed on proteins and preserved at −70° C.
# An immunoprecipitation was carried out by a known technique (Kim S. J., Kahn, C. R. Insulin stimulates phosphorylation of c-Jun, c-Fos and Fos-related proteins in cultured adipocytes. J. Biol. Chem. 269, 11887-11892, 1994). An equal amount of proteins from hepatic lysate were cultured with an insulin receptor antibody at 4° C. for 1 hour, followed by thereto adding protein A-cephalos to precipitate the immune complex by a centrifuge. […]
# [7] = Measurement of body weight; assay type: in vivo; conditions: 80 mg/kg oral once a day for 3 consecutive weeks; administered group vs control (FIG. 6)
# Description: Change of body weight was measured every week before and after N(4′-chlorophenyl) N′ morpholino thiocarbamide (80 mg/kg, PO) was administered.
# [8] = Measurement of lethal dose 50%; assay type: in vivo, mouse; conditions: mouse, in vivo; oral, mice
# Description: (§1) The number of dead animal was counted after N(4′-chlorophenyl) N′ morpholino thiocarbamide was orally administered to 10 mice per a dose in a dose of 50 mg/kg, 500 mg/kg, and 5000 mg/kg.
# [9] = system: mice; assay: Measurement of lethal dose 50%; assay type: in vivo, mouse; conditions: oral, 50 mg/kg, 500 mg/kg and 5000 mg/kg, 10 mice per dose
# Description: as §1
# [10] = Dosage 10 ug/ml with LPS 1 μg/ml
# [11] = Dosage 100 ug/ml with LPS 1 μg/ml
SMILES,Glycogenesis (absorbance) ([1]; Dosage 10 μg/ml),Rate of Increase(%) of glycogenesis ([1]; Dosage 10 μg/ml),Glycogenesis (absorbance) ([1]; Dosage 100 μg/ml),Rate of Increase(%) of glycogenesis ([1]; Dosage 100 μg/ml),Average content of TBARS (%) ([2]; Dosage 10 μg/ml),Average content of TBARS (%) ([2]; Dosage 100 μg/ml),"% (produced nitrites; control 0, LPS 100) [3, 10]","Produced nitrites [3, 10]","% (produced nitrites; control 0, LPS 100) [3, 11]","Produced nitrites [3, 11]",blood glucose lowering effect in oral glucose tolerance test [4],blood glucose level [5],"increase of glycogenesis compared with control group ([1]; 10 μg/ml, 24 hours, HepG2 (FIG. 3))",decrease of TBARS content compared with control group ([2]; 10 μg/ml),decrease of TBARS content compared with control group ([2]; 100 μg/ml),tyrosin phosphorylation of insulin receptors [6],change of body weight [7],LD50 [8],number of dead animals [9]
S=C(Nc1ccccc1)NN1CCCCC1 [phenyl (C12H17N3S)],0.196,90%,0.161,56%,61.4%,65.1%,75.26%,5.5515 µM,74.20%,5.5205 µM,,,,,,,,,
COc1cccc(NC(=S)NN2CCOCC2)c1 [3-methoxyphenyl],0.191,85%,0.202,96%,81.9%,63.9%,81.19%,5.7255 µM,56.99%,5.0155 µM,,,,,,,,,
Cc1ccccc1NC(=S)NN1CCOCC1 [2-methylphenyl],0216,110%,0.238,131%,57.9%,60.5%,81.17%,5.3155 µM,66.14%,5.284 µM,,,,,,,,,
Cc1cccc(NC(=S)NN2CCOCC2)c1 [3-methylphenyl],0.189,83%,0.325,216%,67.5%,66.3%,81.19%,5.7255 µM,61.83%,5.1575 µM,,,,,,,,,
S=C(Nc1ccccc1)NN1CCOCC1 [phenyl (C11H15N3OS)],0.301,195%,0.225,118%,,,62.37%,5.1735 µM,48.93%,4.779 µM,,,,,,,,,
S=C(Nc1ccc(Cl)cc1)NN1CCOCC1 [N(4′-chlorophenyl) N′ morpholino thiocarbamide],,,,,,,4.81%,3.4845 µM,−9.85%,3.0545 µM,remarkable blood glucose lowering effect,300 to 400 mg/dL,49.89%,10.2%,32%,noticeable tyrosin phosphorylation of insulin receptors,no difference in body weight,> 5000 mg/kg,no mouse was dead
